# Test results reported in patent US20250249113A1, “LIGAND-DRUG-CONJUGATES WITH IMPROVED PHARMACOKINETIC AND DRUG RELEASE PROPERTIES” (Debiopharm Research & Manufacturing S.A., priority 2022, published 2025).
# Where a SMILES comes first, the peptide text is derived from it. Side-chain parts run from the residue outwards. [ ]: non-standard residue; d: D form. The star is where a group is joined. DM1Mal(CH2)2CO = COc1cc2cc(c1Cl)N(C)C(=O)C[C@H](OC(=O)[C@H](C)N(C)C(=O)CCSC1CC(=O)N(CCC(=O)*)C1=O)[C@]1(C)O[C@H]1[C@H](C)[C@@H]1C[C@@](O)(NC(=O)O1)[C@H](OC)/C=C/C=C(\C)C2; X1 = CC(=O)N[C@@H](CSC1CC(=O)N(CCC(=O)*)C1=O)C(=O)O; Dolaproine = CO[C@@H]([C@@H]1CCCN1)[C@@H](C)C(=O)O; Dil = CC[C@H](C)[C@H](NC)[C@@H](CC(=O)O)OC; NMe2Val = CC(C)[C@@H](C(=O)*)N(C)C; PEG5 = NCCOCCOCCOCCOCCOCCC(=O)O; Cit = NC(=O)NCCC[C@H](N)C(=O)O; PEG4 = NCCOCCOCCOCCOCCC(=O)O
# What was measured:
# [1] = molecular target: T1, Cathepsin B (Homo sapiens, UniProt P07858); test: Cat B-induced cleavage study (in vitro enzymatic cleavage assay, UHPLC-MS/MS); type: biochemical; settings: for Ratio (T1/2 Compound/T1/2 Reference): reference: Cys-MC-Val-Cit-PABC-MMAF; for half-life at 10 μM: human, recombinant human Cathepsin B, 10 μM compound, Cathepsin B 2 μg/mL, 25 mM MES buffer pH 5.0, 37° C., read-out: T1/2 Compound
# T1 construct: purchased R&D Systems, Bio-Techne AG 953-CY-010
# Protocol: (§1) The propensity of compounds 1-13 to be cleaved by Cathepsin B—was evaluated according to an in vitro enzymatic cleavage assay using recombinant human Cathepsin B and UHPLC-MS/MS analysis as described below.
# (§2) Reference compounds Cys-MC-Val-Cit-PABC-MMAF and MMAF were used as positive controls. The enzyme was reconstituted in 25 mM MES buffer adjusted at pH 5.0 with a 1M NaOH solution and then activated with a […] solution of DDT at room temperature for at least 15 min.
# (§3) The in vitro enzymatic assay was conducted at 37° C. with the test compounds at a concentration of 10 μM (2.5 μM when the test compound is an antibody-drug conjugate) in the presence of activated recombinant human Cathepsin B enzyme at 2 μg/mL in a 25 mM MES buffer pH 5.0. The enzymatic cleavage reaction was stopped for each defined time point by mixing an equal volume of acetonitrile+0.1% FA containing an internal standard (warfarine at 8 μM).
# (§4) Analysis was conducted using a Waters Acquity UPLC System coupled to a Waters Xevo TQ triple quad mass spectrometer. UHPLC was conducted depending on the test compounds with a BEH C8 1.7 μm 100×2.1 mm or BEH C18 1.7 μm 50×2.1 mm or HSS T3 1.7 μm 50×2.1 mm columns heated at 45° C. or 50° C. and fitted with 2 μm insert filter pre-columns (available from Waters), and solvent systems A1 (H2O+0.1% FA) and B1 (acetonitrile+0.1% FA) at a flow rate of 0.6 mL/min and a 10-95% gradient of B1 over 1.9 min.
# (§5) MS/MS was performed using electrospray ionization (ESI) interface in positive mode and specific MRM transitions for each tested compound.
# [2] = molecular target: T2, Cathepsin B (exo-Cat B cleavage) (Homo sapiens, UniProt P07858); test: as above; type: biochemical; settings: human, recombinant human Cathepsin B, pH 5; read-out: T1/2 (cleavage by exo-Cat B)
# T2 construct: purchased R&D Systems, Bio-Techne AG 953-CY-010
# Protocol: as §1, §2, §3, §4, §5
# [3] = DRF toxicity study of DM1-Ac-Cit and DM1-Ac-Cit-Lys(Cys-ma-Lys(PEG16))-Tyr-OH, 2 intravenous bolus injections (Day 1 and Day 8), female mice; type: in vivo, mouse; settings: for related mortalities, clinical observations or effects on body weights and food consumption / related ophthalmic findings or changes in clinical pathology parameters / related organ weight changes, macroscopic and microscopic findings: DM1-Ac-Cit 0.15, 0.68 or 1.4 mg/kg/adm, DM1-Ac-Cit-Lys(Cys-ma-Lys(PEG16))-Tyr-OH 3.5 mg/kg/adm, 2 i.v. injections
# Protocol: The objectives of this study were to determine the potential toxicity of Multilink-DM1-Ac-Cit and DM1-Ac-Cit-Lys(Cys-ma-Lys(PEG16))-Tyr-OH when administered intravenously (via bolus injection).
# 2 injections of the same dose of either DM1-Ac-Cit ((test item 1) at 0.15, 0.68 or 1.4 mg/kg/adm) or 2 injections of the same dose of DM1-Ac-Cit-Lys(Cys-ma-Lys(PEG16))-Tyr-OH ((test item 2) at 3.5 mg/kg/adm were administered separately (on Day 1 and Day 8 (7-day interval) to CD-1® IGS mice, and the reversibility and/or delayed occurrence of any findings were evaluated during a 10-day observation period. In addition, the toxicokinetic characteristics of DM1-Ac-Cit-Lys(Cys-ma-Lys(PEG16))-Tyr-OH, DM1-Ac-Cit, and the catabolite DM1 were determined.
# A control group received the Vehicle Control 1: 8% Ethanol/8% Polysorbate (Tween*) 80/PBS 84%.
# The study design was as follows:
# The following parameters and end points were evaluated in this study: mortality, clinical observations, body weights, food consumption, ophthalmology, clinical pathology parameters (hematology and clinical chemistry), toxicokinetic parameters, organ weights, and macroscopic and microscopic examinations.
Compound,Ratio (T1/2 Compound/T1/2 Reference) [1],half-life at 10 μM [1] [s],other results
"CC[C@H](C)[C@@H]([C@@H](CC(=O)N1CCC[C@H]1[C@H](OC)[C@@H](C)C(=O)N[C@@H](Cc1ccccc1)C(=O)N[C@@H](CCCNC(=N)N)C(=O)N[C@@H](Cc1ccccc1)C(=O)N[C@@H](CCCCNC(=O)CCOCCOCCOCCOCCNC(=O)CCN1C(=O)CC(SC[C@H](NC(C)=O)C(=O)O)C1=O)C(=O)O)OC)N(C)C(=O)[C@@H](NC(=O)[C@H](C(C)C)N(C)C)C(C)C (stereo partly drawn) [Compound 3, AF-Arg-Phe-Lys(PEG4-Mal-Cys-Ac)-OH] (NMe2Val-V[Dil][Dolaproine]FRFK([PEG4-X1])-OH; N-terminus assumed)",0.11,,
"COc1cc2cc(c1Cl)N(C)C(=O)C[C@H](OC(=O)[C@H](C)N(C)C(=O)CCSC1CC(=O)N(CC3CCC(C(=O)N[C@@H](CCCNC(N)=O)C(=O)N[C@@H](CCCCNC(=O)CCOCCOCCOCCOCCOCCNC(=O)CN4C(=O)CC(SC[C@H](NC(C)=O)C(=O)O)C4=O)C(=O)N[C@@H](Cc4ccc(O)cc4)C(=O)O)CC3)C1=O)[C@]1(C)O[C@H]1[C@H](C)[C@@H]1C[C@@](O)(NC(=O)O1)[C@H](OC)/C=C/C=C(\C)C2 (stereo partly drawn) [Compound 12, DM1-Mcc-Cit-Lys(PEG5-Ma-Cys-Ac)-Tyr-OH]",0.00004,,half-life [2]: ≤ 60 s
"CC[C@H](C)[C@@H]([C@@H](CC(=O)N1CCC[C@H]1[C@H](OC)[C@@H](C)C(=O)N[C@@H](Cc1ccccc1)C(=O)N[C@@H](CCCNC(=N)N)C(=O)N[C@@H](CCCCNC(=O)CCOCCOCCOCCOCCOCCNC(=O)CCN1C(=O)CC(SC[C@H](NC(C)=O)C(=O)O)C1=O)C(=O)N[C@@H](Cc1ccccc1)C(=O)O)OC)N(C)C(=O)[C@@H](NC(=O)[C@H](C(C)C)N(C)C)C(C)C (stereo partly drawn) [Compound 1, AF-Arg-Lys(PEG4-Mal-Cys-Ac)-Phe-OH] (NMe2Val-V[Dil][Dolaproine]FRK([PEG5-X1])F-OH; N-terminus assumed)",0.12,,
"COc1cc2cc(c1Cl)N(C)C(=O)C[C@H](OC(=O)[C@H](C)N(C)C(=O)CCSC1CC(=O)N(CC3CCC(C(=O)N[C@@H](Cc4ccccc4)C(=O)N[C@@H](CCCNC(N)=O)C(=O)N[C@@H](CCCCNC(=O)CCOCCOCCOCCOCCOCCNC(=O)CN4C(=O)CC(SC[C@H](NC(C)=O)C(=O)O)C4=O)C(=O)N[C@@H](Cc4ccc(O)cc4)C(=O)O)CC3)C1=O)[C@]1(C)O[C@H]1[C@H](C)[C@@H]1C[C@@](O)(NC(=O)O1)[C@H](OC)/C=C/C=C(\C)C2 (stereo partly drawn) [Compound 11, DM1-Mcc-Phe-Cit-Lys(PEG5-Ma-Cys-Ac)-Tyr-OH]",0.005,3.6,half-life [2]: ≤ 60 s
DM1-Ac-Cit,,,"tolerability ([3]; 2 i.v. bolus injections at 7-day interval at 0.15, 0.68, and 1.4 mg/kg/adm, female CD-1 mice): well tolerated; related mortalities, clinical observations or effects on body weights and food consumption [3]: no; related ophthalmic findings or changes in clinical pathology parameters [3]: no; related organ weight changes, macroscopic and microscopic findings [3]: no macroscopic and microscopic findings; no observed adverse effect level (NOAEL) ([3]; DM1-Ac-Cit, 2 i.v. bolus injections at 7-day interval, female CD-1 mice): 1.4 mg/kg/adm"
"COc1cc2cc(c1Cl)N(C)C(=O)C[C@H](OC(=O)[C@H](C)N(C)C(=O)CCSC1CC(=O)N(CCC(=O)N[C@@H](Cc3ccccc3)C(=O)N[C@@H](CCCNC(N)=O)C(=O)N[C@@H](CCCCNC(=O)CCOCCOCCOCCOCCNC(=O)CCN3C(=O)CC(SC[C@H](NC(C)=O)C(=O)O)C3=O)C(=O)N[C@@H](Cc3ccccc3)C(=O)O)C1=O)[C@]1(C)O[C@H]1[C@H](C)[C@@H]1C[C@@](O)(NC(=O)O1)[C@H](OC)/C=C/C=C(\C)C2 (stereo partly drawn) [Compound 6, DM1-Mal-Phe-Cit-Lys(PEG4-Mal-Cys-Ac)-Phe-OH] ({DM1Mal(CH2)2CO}-F[Cit]K([PEG4-X1])F-OH; N-terminus assumed)",0.02,18,
"CC[C@H](C)[C@@H]([C@@H](CC(=O)N1CCC[C@H]1[C@H](OC)[C@@H](C)C(=O)N[C@@H](Cc1ccccc1)C(=O)N[C@@H](CCCNC(N)=O)C(=O)N[C@@H](CCCCNC(=O)CCOCCOCCOCCOCCNC(=O)CCN1C(=O)CC(SC[C@H](NC(C)=O)C(=O)O)C1=O)C(=O)N[C@@H](Cc1ccccc1)C(=O)O)OC)N(C)C(=O)[C@@H](NC(=O)[C@H](C(C)C)N(C)C)C(C)C (stereo partly drawn) [Compound 8, AF-Cit-Lys(PEG4-Mal-Cys-Ac)-Phe-OH] (NMe2Val-V[Dil][Dolaproine]F[Cit]K([PEG4-X1])F-OH; N-terminus assumed)",0.09,,
DM1-Ac-Cit-Lys(Cys-ma-Lys(PEG16))-Tyr-OH,,,"tolerability ([3]; 2 i.v. bolus injections at 7-day interval at 3.5 mg/kg/adm): well tolerated; related mortalities, clinical observations or effects on body weights and food consumption [3]: no; related ophthalmic findings or changes in clinical pathology parameters [3]: no; related organ weight changes, macroscopic and microscopic findings [3]: no macroscopic and microscopic findings"
"COc1cc2cc(c1Cl)N(C)C(=O)C[C@H](OC(=O)[C@H](C)N(C)C(=O)CCSC1CC(=O)N(CCC(=O)N[C@@H](Cc3ccccc3)C(=O)N[C@@H](CCCCN)C(=O)N[C@@H](CCCCNC(=O)CCOCCOCCOCCOCCNC(=O)CCN3C(=O)CC(SC[C@H](NC(C)=O)C(=O)O)C3=O)C(=O)N[C@@H](Cc3ccccc3)C(=O)O)C1=O)[C@]1(C)O[C@H]1[C@H](C)[C@@H]1C[C@@](O)(NC(=O)O1)[C@H](OC)/C=C/C=C(\C)C2 (stereo partly drawn) [Compound 5, DM1-Mal-Phe-Lys-Lys(PEG4-Mal-Cys-Ac)-Phe-OH] ({DM1Mal(CH2)2CO}-FKK([PEG4-X1])F-OH; N-terminus assumed)",0.05,36,"Cat B-induced drug release, faster as compared to reference Cys-MC-Val-Cit-PABC-MMAF [1]: 20 times"
"COc1cc2cc(c1Cl)N(C)C(=O)C[C@H](OC(=O)[C@H](C)N(C)C(=O)CCSC1CC(=O)N(CCC(=O)N[C@@H](Cc3ccccc3)C(=O)N[C@@H](CCCNC(N)=O)C(=O)N[C@@H](Cc3ccccc3)C(=O)N[C@@H](CCCCNC(=O)CCOCCOCCOCCOCCNC(=O)CCN3C(=O)CC(SC[C@H](NC(C)=O)C(=O)O)C3=O)C(=O)O)C1=O)[C@]1(C)O[C@H]1[C@H](C)[C@@H]1C[C@@](O)(NC(=O)O1)[C@H](OC)/C=C/C=C(\C)C2 (stereo partly drawn) [Compound 7, DM1-Mal-Phe-Cit-Phe-Lys(PEG4-Mal-Cys-Ac)-OH] ({DM1Mal(CH2)2CO}-F[Cit]FK([PEG4-X1])-OH; N-terminus assumed)",0.09,72,
